Converted amounts (≈) assume the structure as drawn. Where a SMILES comes first, the peptide text is derived from it. [ ]: non-standard residue; d: D form. Phe(3,4-F2) = N[C@@H](Cc1ccc(F)c(F)c1)C(=O)O; Cha = N[C@@H](CC1CCCCC1)C(=O)O; Aib = CC(C)(N)C(=O)O
Assays:
[1] = target: SARS-CoV-2 RBD binding to immobilized ACE2 (Severe acute respiratory syndrome coronavirus 2, UniProt P0DTC2); assay: biochemical
[2] = target: SARS-CoV-2 RBD (Severe acute respiratory syndrome coronavirus 2, UniProt P0DTC2); assay: biochemical; type: binding; conditions: for Kd: KD (direct binding to RBD); for kon: read-out: ka
[3] = Solubility measurement (peptide concentration in saturated solution); conditions: sodium-phosphate buffer, pH 7.4, aqueous buffer, thermodynamic from solid
Method: Approximately 2 mg of each peptide was added to 500 µl of buffer in 1.5-ml Eppendorf tubes. The tubes were shaken at 25 °C for 2 h on a 900 r.p.m. vortex shaker. The samples were centrifuged at 12,000 r.p.m. for 15 min to remove the precipitate and the supernatant was analyzed by ultraviolet–visible light (UV–vis) spectrometry.

SMILES	IC50 [1] [nM]	Kd [2] [nM]	kon [2] [M⁻¹ s⁻¹]	solubility thermodynamic at 2 h [3] [µM]
CC[C@H](C)[C@H](NC(=O)[C@H](CCC(=O)O)NC(=O)[C@H](CC(=O)O)NC(=O)[C@H](CO)NC(=O)[C@@H](NC(=O)[C@H](CCCNC(=N)N)NC(=O)[C@H](CCSC)NC(=O)[C@H](CO)NC(=O)[C@H](C)NC(=O)[C@H](CCC(=O)O)NC(=O)C(C)(C)NC(=O)[C@H](CC(=O)O)NC(=O)[C@@H](C)NC(=O)[C@H](CC(C)C)NC(=O)[C@H](CCC(=O)O)NC(=O)[C@H](CC(=O)O)NC(=O)[C@H](CC(C)C)NC(=O)[C@H](CC(C)C)NC(=O)[C@H](CCCNC(=N)N)NC(=O)[C@H](CCSC)NC(=O)[C@H](CCC(=O)O)NC(=O)[C@H](CCC(=O)O)NC(=O)[C@H](Cc1ccc(O)cc1)NC(=O)[C@@H](NC(=O)[C@H](CCCCN)NC(=O)[C@H](CCC(N)=O)NC(=O)[C@H](CC(C)C)NC(=O)[C@@H](NC(=O)[C@H](Cc1c[nH]c2ccccc12)NC(=O)[C@H](CCC(=O)O)NC(=O)[C@H](CCCCN)NC(=O)[C@@H](N)CC(=O)O)[C@@H](C)CC)[C@@H](C)CC)C(C)C)C(=O)N[C@@H](Cc1ccc(O)cc1)C(=O)N[C@@H](CCC(=O)O)C(=O)N[C@@H](Cc1ccccc1)C(=O)N[C@@H](CCSC)C(=O)N[C@@H](CCCCN)C(=O)N[C@@H](CCCCN)C(N)=O [SIH-15] (H-DKEWILQKIYEEMRLLDEL[dA]D[Aib]EASMRVSDEIYEFMKK-NH2)	250 to 500	1.7	150000	
CC[C@H](C)[C@H](NC(=O)[C@H](CC(C)C)NC(=O)[C@H](CC(=O)O)NC(=O)[C@H](CO)NC(=O)[C@@H](NC(=O)[C@H](CCCNC(=N)N)NC(=O)[C@H](CCSC)NC(=O)[C@H](CO)NC(=O)[C@H](C)NC(=O)[C@H](CCC(=O)O)NC(=O)[C@H](C)NC(=O)[C@H](Cc1c[nH]cn1)NC(=O)CNC(=O)[C@H](CC(C)C)NC(=O)[C@H](CCC(=O)O)NC(=O)[C@H](CC(=O)O)NC(=O)[C@H](CC(C)C)NC(=O)[C@H](CC(C)C)NC(=O)[C@H](CCCNC(=N)N)NC(=O)[C@H](CCSC)NC(=O)[C@@H](NC(=O)[C@H](CCC(=O)O)NC(=O)[C@H](Cc1ccc(O)cc1)NC(=O)[C@@H](NC(=O)[C@H](CCCCN)NC(=O)[C@H](CCC(N)=O)NC(=O)[C@H](CC(C)C)NC(=O)[C@@H](NC(=O)[C@H](Cc1c[nH]c2ccccc12)NC(=O)[C@H](CCC(=O)O)NC(=O)[C@H](CCCCN)NC(=O)[C@@H](N)CC(=O)O)[C@@H](C)CC)[C@@H](C)CC)[C@@H](C)CC)C(C)C)C(=O)N[C@@H](Cc1ccc(O)cc1)C(=O)N[C@@H](CCC(=O)O)C(=O)N[C@@H](Cc1ccccc1)C(=O)N[C@@H](CCSC)C(=O)N[C@@H](CCCCN)C(=O)N[C@@H](CCCCN)C(N)=O [SIH-1]	2500 to 5000			17 (≈ 78.9 µg/mL)
CC[C@H](C)[C@H](NC(=O)[C@H](CC(C)C)NC(=O)[C@H](CC(=O)O)NC(=O)[C@H](CO)NC(=O)[C@@H](NC(=O)[C@H](CCCNC(=N)N)NC(=O)[C@H](CCSC)NC(=O)[C@H](CO)NC(=O)[C@H](C)NC(=O)[C@H](CCC(=O)O)NC(=O)C(C)(C)NC(=O)[C@H](CC(=O)O)NC(=O)[C@@H](C)NC(=O)[C@H](CC(C)C)NC(=O)[C@H](CCC(=O)O)NC(=O)[C@H](CC(=O)O)NC(=O)[C@H](CC(C)C)NC(=O)[C@H](CC(C)C)NC(=O)[C@H](CCCNC(=N)N)NC(=O)[C@H](CCSC)NC(=O)[C@@H](NC(=O)[C@H](CCC(=O)O)NC(=O)[C@H](Cc1ccc(F)c(F)c1)NC(=O)[C@@H](NC(=O)[C@H](CCCCN)NC(=O)[C@H](CCC(N)=O)NC(=O)[C@H](CC(C)C)NC(=O)[C@@H](NC(=O)[C@H](Cc1c[nH]c2ccccc12)NC(=O)[C@H](CCC(=O)O)NC(=O)[C@H](CCCCN)NC(=O)[C@@H](N)CC(=O)O)[C@@H](C)CC)[C@@H](C)CC)[C@@H](C)CC)C(C)C)C(=O)N[C@@H](Cc1ccc(O)cc1)C(=O)N[C@@H](CCC(=O)O)C(=O)N[C@@H](CC1CCCCC1)C(=O)N[C@@H](CCSC)C(=O)N[C@@H](CCCCN)C(=O)N[C@@H](CCCCN)C(N)=O [SIH-13] (H-DKEWILQKI[Phe(3,4-F2)]EIMRLLDEL[dA]D[Aib]EASMRVSDLIYE[Cha]MKK-NH2)	125 to 250	1.6		
CC[C@H](C)[C@H](NC(=O)[C@H](CC(C)C)NC(=O)[C@H](CC(=O)O)NC(=O)[C@H](CO)NC(=O)[C@@H](NC(=O)[C@H](CCCNC(=N)N)NC(=O)[C@H](CCSC)NC(=O)[C@H](CO)NC(=O)[C@H](C)NC(=O)[C@H](CCC(=O)O)NC(=O)C(C)(C)NC(=O)[C@H](CC(N)=O)NC(=O)[C@@H](C)NC(=O)[C@H](CC(C)C)NC(=O)[C@H](CCC(=O)O)NC(=O)[C@H](CC(=O)O)NC(=O)[C@H](CC(C)C)NC(=O)[C@H](CC(C)C)NC(=O)[C@H](CCCNC(=N)N)NC(=O)[C@H](CCSC)NC(=O)[C@@H](NC(=O)[C@H](CCC(=O)O)NC(=O)[C@H](Cc1ccc(O)cc1)NC(=O)[C@@H](NC(=O)[C@H](CCCCN)NC(=O)[C@H](CCC(N)=O)NC(=O)[C@H](CC(C)C)NC(=O)[C@@H](NC(=O)[C@H](Cc1c[nH]c2ccccc12)NC(=O)[C@H](CCC(=O)O)NC(=O)[C@H](CCCCN)NC(=O)[C@@H](N)CC(=O)O)[C@@H](C)CC)[C@@H](C)CC)[C@@H](C)CC)C(C)C)C(=O)N[C@@H](Cc1ccc(O)cc1)C(=O)N[C@@H](CCC(=O)O)C(=O)N[C@@H](Cc1ccccc1)C(=O)N[C@@H](CCSC)C(=O)N[C@@H](CCCCN)C(=O)N[C@@H](CCCCN)C(N)=O [SIH-4] (H-DKEWILQKIYEIMRLLDEL[dA]N[Aib]EASMRVSDLIYEFMKK-NH2)	250 to 500			220 (≈ 1020 µg/mL)
CC[C@H](C)[C@H](NC(=O)[C@H](C)NC(=O)[C@H](CC(=O)O)NC(=O)[C@H](CO)NC(=O)[C@@H](NC(=O)[C@H](CCCNC(=N)N)NC(=O)[C@H](CCSC)NC(=O)[C@H](CO)NC(=O)[C@H](C)NC(=O)[C@H](CCC(=O)O)NC(=O)C(C)(C)NC(=O)[C@H](CC(=O)O)NC(=O)[C@@H](C)NC(=O)[C@H](CC(C)C)NC(=O)[C@H](CCC(=O)O)NC(=O)[C@H](CC(=O)O)NC(=O)[C@H](CC(C)C)NC(=O)[C@H](CC(C)C)NC(=O)[C@H](CCCNC(=N)N)NC(=O)[C@H](CCSC)NC(=O)[C@H](C)NC(=O)[C@H](CCC(=O)O)NC(=O)[C@H](Cc1ccc(O)cc1)NC(=O)[C@@H](NC(=O)[C@H](CCCCN)NC(=O)[C@H](CCC(N)=O)NC(=O)[C@H](CC(C)C)NC(=O)[C@@H](NC(=O)[C@H](Cc1c[nH]c2ccccc12)NC(=O)[C@H](CCC(=O)O)NC(=O)[C@H](CCCCN)NC(=O)[C@@H](N)CC(=O)O)[C@@H](C)CC)[C@@H](C)CC)C(C)C)C(=O)N[C@@H](Cc1ccc(O)cc1)C(=O)N[C@@H](CCC(=O)O)C(=O)N[C@@H](Cc1ccccc1)C(=O)N[C@@H](CCSC)C(=O)N[C@@H](CCCCN)C(=O)N[C@@H](CCCCN)C(N)=O [SIH-14] (H-DKEWILQKIYEAMRLLDEL[dA]D[Aib]EASMRVSDAIYEFMKK-NH2)	250 to 500	3	90000	
CC[C@H](C)[C@H](NC(=O)[C@H](CC(C)C)NC(=O)[C@H](CC(=O)O)NC(=O)[C@H](CO)NC(=O)[C@@H](NC(=O)[C@H](CCCNC(=N)N)NC(=O)[C@H](CCSC)NC(=O)[C@H](CO)NC(=O)[C@H](C)NC(=O)[C@H](CCC(=O)O)NC(=O)C(C)(C)NC(=O)[C@H](Cc1c[nH]cn1)NC(=O)[C@@H](C)NC(=O)[C@H](CC(C)C)NC(=O)[C@H](CCC(=O)O)NC(=O)[C@H](CC(=O)O)NC(=O)[C@H](CC(C)C)NC(=O)[C@H](CC(C)C)NC(=O)[C@H](CCCNC(=N)N)NC(=O)[C@H](CCSC)NC(=O)[C@@H](NC(=O)[C@H](CCC(=O)O)NC(=O)[C@H](Cc1ccc(O)cc1)NC(=O)[C@@H](NC(=O)[C@H](CCCCN)NC(=O)[C@H](CCC(N)=O)NC(=O)[C@H](CC(C)C)NC(=O)[C@@H](NC(=O)[C@H](Cc1c[nH]c2ccccc12)NC(=O)[C@H](CCC(=O)O)NC(=O)[C@H](CCCCN)NC(=O)[C@@H](N)CC(=O)O)[C@@H](C)CC)[C@@H](C)CC)[C@@H](C)CC)C(C)C)C(=O)N[C@@H](Cc1ccc(O)cc1)C(=O)N[C@@H](CCC(=O)O)C(=O)N[C@@H](Cc1ccccc1)C(=O)N[C@@H](CCSC)C(=O)N[C@@H](CCCCN)C(=O)N[C@@H](CCCCN)C(N)=O [SIH-3] (H-DKEWILQKIYEIMRLLDEL[dA]H[Aib]EASMRVSDLIYEFMKK-NH2)	125 to 250			95 (≈ 444 µg/mL)
CC[C@H](C)[C@H](NC(=O)[C@H](CC(C)C)NC(=O)[C@H](CC(=O)O)NC(=O)[C@H](CO)NC(=O)[C@@H](NC(=O)[C@H](CCCNC(=N)N)NC(=O)[C@H](CCSC)NC(=O)[C@H](CO)NC(=O)[C@H](C)NC(=O)[C@H](CCC(=O)O)NC(=O)C(C)(C)NC(=O)[C@H](CC(=O)O)NC(=O)[C@@H](C)NC(=O)[C@H](CC(C)C)NC(=O)[C@H](CCC(=O)O)NC(=O)[C@H](CC(=O)O)NC(=O)[C@H](CC(C)C)NC(=O)[C@H](CC(C)C)NC(=O)[C@H](CCCNC(=N)N)NC(=O)[C@H](CCSC)NC(=O)[C@@H](NC(=O)[C@H](CCC(=O)O)NC(=O)[C@H](Cc1ccc(F)c(F)c1)NC(=O)[C@@H](NC(=O)[C@H](CCCCN)NC(=O)[C@H](CCC(N)=O)NC(=O)[C@H](CC(C)C)NC(=O)[C@@H](NC(=O)[C@H](Cc1c[nH]c2ccccc12)NC(=O)[C@H](CCC(=O)O)NC(=O)[C@H](CCCCN)NC(=O)[C@@H](N)CC(=O)O)[C@@H](C)CC)[C@@H](C)CC)[C@@H](C)CC)C(C)C)C(=O)N[C@@H](Cc1ccc(O)cc1)C(=O)N[C@@H](CCC(=O)O)C(=O)N[C@@H](Cc1ccccc1)C(=O)N[C@@H](CCSC)C(=O)N[C@@H](CCCCN)C(=O)N[C@@H](CCCCN)C(N)=O [SIH-7] (H-DKEWILQKI[Phe(3,4-F2)]EIMRLLDEL[dA]D[Aib]EASMRVSDLIYEFMKK-NH2)	125 to 250	2.9		

From PMC9512702 (Nature Chemical Biology, 2022)
